Values joined by “and” are separate entries in the source; they are usually repeats but may differ in a detail not shown here. Identical values can stand only once.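 Grown in 96-well plates, cells were treated for 48 hours with each compound at five concentrations. Insufficient inhibition: endpoint recorded as highest concentration tested. At the GI50, growth is halved. TGI denotes the concentration required for complete inhibition of growth.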
What was measured:
Assay in all cases: NCI anticancer screen, dose series, 48 h
[1] = test system: EKVX NSCLC
[2] = test system: HCT-116 colon
[3] = test system: HL-60(TB) leukemia
[4] = test system: LOX IMVI melanoma
[5] = test system: M14 melanoma
[6] = test system: NCI-H522 lung
[7] = test system: OVCAR-3 ovarian
[8] = test system: OVCAR-5 ovarian
[9] = test system: RPMI-8226 leukemia
[10] = test system: SW-620 colon

Row | SMILES | TGI [1] [µM] | TGI [2] | TGI [3] [µM] | TGI [4] [µM] | TGI [5] [µM] | TGI [6] [µM] | TGI [7] [µM] | TGI [8] [µM] | TGI [9] [µM] | TGI [10] [µM] | GI50 [1] [µM] | GI50 [2] [µM] | GI50 [3] [µM] | GI50 [4] [µM] | GI50 [5] [µM] | GI50 [6] [µM] | GI50 [7] [µM] | GI50 [8] [µM] | GI50 [9] [µM] | GI50 [10] [µM]
1 | COC(=O)c1c2c(cc3c1CC1(Cc4cc5c(c(C)c4C1)CCC5)C3)CCC2 (centres undefined) | > 100 | > 100 µM | > 100 | > 100 | > 100 | > 100 | > 100 | > 100 | > 100 | > 100 |  |  |  |  |  |  |  |  |  | 
2 | O=Nc1c(-c2c(O)[nH]c3ccc(I)cc23)[nH]c2ccccc12 | > 69.7 |  | 6.96 | > 24.5 | > 100 | > 26.1 | > 57.3 | > 27.1 | 4.67 |  |  |  |  |  |  |  |  |  |  | 
3 | CSc1nnc(SCc2nn3c(=O)cc(C)nc3s2)s1 | > 100 | > 100 µM | > 100 | > 100 | > 100 | > 100 | > 100 | > 100 | > 100 | > 100 |  |  |  |  |  |  |  |  |  | 
4 | O=C(Nc1ccc(-n2cc(-c3ccncc3)c(-c3ccc(O)c(Cl)c3)n2)cc1)c1ccc(Cl)c(C(F)(F)F)c1 | > 50 | 7.04 µM | 12.5 | 6.88 | 2.08 | 4.88 | 7.33 | > 50 | 2.52 | > 50 | 4.83 | 1.75 | 1.83 | 1.12 | 0.946 | 1 | 1.63 | 10.1 | 0.65 | 2.38
5 | Oc1cccc2c(Br)ccnc12 | 11.6 | 12.2 µM | 0.983 | 12.7 | 16.3 | 17.1 | 7.81 | 20 | 4.72 | 16.7 |  |  |  |  |  |  |  |  |  | 
6 | COc1ccc(/C=C2\CCCc3ccccc3C2=O)cc1 | > 100 | 20.5 µM | 9.55 | 17.4 | 22.2 | 1.71 | 0.422 | > 100 | 21.5 | > 100 |  |  |  |  |  |  |  |  |  | 
7 | COc1cc(S(=O)(=O)Nc2ccc(-c3csc(N4C(=O)C(Cl)C4c4ccccc4O)n3)cc2)ccc1Cl (centres undefined) | > 100 | > 100 µM | 49.7 | 3.56 | > 100 | 3.48 | > 100 | > 100 | 83.9 | > 100 |  |  |  |  |  |  |  |  |  | 
8 | Cc1cc2c(=O)c3ccc(Cl)cc3[nH]c2c(C(N)=O)c1C | > 100 | > 100 µM | > 100 | > 100 | > 100 | > 100 | > 100 | > 100 | > 100 | > 100 |  |  |  |  |  |  |  |  |  | 
9 | O=C1C=CC2(O[C@H](C3CCCCC3)[C@@H](C3CCCCC3)O2)C(SC(=O)c2ccccc2)C1 (some centres undefined) | 12.7 | 1.75 µM | 7.37 | 5.92 | 7.9 | 2.23 | 2.04 | 6.32 | 2.22 | 16.8 |  |  |  |  |  |  |  |  |  | 
10 | CC(C)(C)c1cc(OCc2nnc3sc(Cc4ccccc4)nn23)c(Cl)cc1OCc1nnc2sc(Cc3ccccc3)nn12 | > 100 | 75.2 µM | 58.3 | > 100 | 88 | > 100 | > 100 | > 100 | > 100 | > 100 |  |  |  |  |  |  |  |  |  | 
11 | Cc1cc2nc3ccccc3n2c2ccccc12 | > 10 | > 10 µM | > 10 | > 10 | > 10 | > 10 | > 10 | > 10 | > 10 | > 10 |  |  |  |  |  |  |  |  |  | 
12 | COc1ccc(-n2c(N)c(C#N)c(C#N)c2-c2ccco2)cc1 | > 100 | > 100 µM | > 100 | > 100 | > 100 | > 100 | > 100 | > 100 | > 100 | > 100 |  |  |  |  |  |  |  |  |  | 
13 | N/N=C(/N)SCCCCCCCCCCS/C(N)=N/N | > 100 | > 100 µM | 39.4 | 23.7 | > 100 | 65.6 | 91.1 | > 100 | 70.8 | 36.6 |  |  |  |  |  |  |  |  |  | 
14 | NC1CCCCC1NCCNC1CCCCC1N (centres undefined) | > 100 | > 100 µM | > 100 | > 100 | > 100 | > 100 | > 100 | 56.6 | > 100 | > 100 |  |  |  |  |  |  |  |  |  | 
15 | O=c1[nH]n(CCc2ccccc2CCl)c2ccc([N+](=O)[O-])cc12 | 36.1 | > 100 µM | > 100 | > 100 | > 100 | > 100 | > 100 | > 100 | > 100 | > 100 |  |  |  |  |  |  |  |  |  | 
16 | CC(OP(=O)(O)O)C(N)C(=O)O (centres undefined) | > 100 | > 100 µM | > 100 | > 100 | > 100 | > 100 | > 100 | > 100 | > 100 | > 100 |  |  |  |  |  |  |  |  |  | 
17 | Cc1ccc(S(=O)(=O)OCCC2CN(C(=O)OCc3ccccc3)C(C)(C)O2)cc1 (centres undefined) | > 100 | > 100 µM | 30 | > 100 | 38.1 | 20.1 | > 100 | > 100 | 32.4 | > 100 |  |  |  |  |  |  |  |  |  | 
18 | O=c1cc(N2CCOCC2)n2c(ccc3ccccc32)n1 | > 100 | > 100 µM | > 100 | > 100 | > 100 | > 100 | > 100 | > 100 | > 100 | > 100 |  |  |  |  |  |  |  |  |  | 

Row | SMILES | TGI [1] [µM] | TGI [2] | TGI [3] [µM] | TGI [4] [µM] | TGI [5] [µM] | TGI [6] [µM] | TGI [7] [µM] | TGI [8] [µM] | TGI [9] [µM] | TGI [10] [µM] | GI50 [1] [µM] | GI50 [2] [µM] | GI50 [3] [µM] | GI50 [4] [µM] | GI50 [5] [µM] | GI50 [6] [µM] | GI50 [7] [µM] | GI50 [8] [µM] | GI50 [9] [µM] | GI50 [10] [µM]
19 | CCOC(=O)C1CCC(=O)N1C(=O)c1cccc(Cl)c1 (centres undefined) | > 100 | > 100 µM | > 100 | > 100 | > 100 | > 100 | > 100 | > 100 | > 100 | > 100 |  |  |  |  |  |  |  |  |  | 
20 | COc1cccc(NC(=O)CC(=O)n2nc(-c3ccccc3)c(N=Nc3ccc(Cl)cc3)c2-c2ccccc2)c1 | 92.8 | 67 µM | 56.1 | 38.4 | 42.3 | 59.8 | 99.1 | > 100 | > 100 | > 100 |  |  |  |  |  |  |  |  |  | 
21 | CC(C)OP(=O)(OC(C)C)C(C(C)C)N(C)C(N)=NC#N (centres undefined) | > 100 | > 100 µM | > 100 | > 100 | > 100 | > 100 | > 100 |  | > 100 | > 100 |  |  |  |  |  |  |  |  |  | 
22 | CCCC1=C(OC)C(=O)c2c(C)cc(Cl)nc2C1=O | 20.7 | 7.26 µM | 3.65 | 5.15 | 18.9 | 8.06 | 6.54 | 29.1 | 5.98 | 10.5 |  |  |  |  |  |  |  |  |  | 
23 | O=c1c2ccccc2nc(N/N=C/c2ccc([N+](=O)[O-])cc2)n1-c1ccccc1 | 79.6 | > 100 µM | > 100 | > 100 | > 100 | > 100 | > 100 | > 100 | > 100 |  |  |  |  |  |  |  |  |  |  | 
24 | COc1ccc(/C=c2\[nH]c3nc(=O)c(N4CCCCC4)c(N)n3c2=O)cc1 | > 100 | > 100 µM | > 100 | > 100 | > 100 | > 100 |  | > 100 | > 100 | > 100 |  |  |  |  |  |  |  |  |  | 
25 | C=CC(C)(C)/C=C/c1ccc(O)cc1 | > 100 | > 100 µM | > 100 | 45.6 | > 100 | > 100 | > 100 | > 100 | 70.1 | > 100 |  |  |  |  |  |  |  |  |  | 
26 | O=c1cc(-c2ccccc2)oc2c1ccc1[nH]c3ccccc3c(=O)c12 | > 100 | > 100 µM | > 100 | 34.9 | > 100 | > 100 | > 100 | > 100 | > 100 | > 100 |  |  |  |  |  |  |  |  |  | 
27 | O=C1N2CCC[C@H]2CS1(=O)=O | 44.4 | 28.1 µM | 39.3 | 27.3 | 31.6 | 18.5 | 31.4 | 93.7 | 10.8 | 42.1 |  |  |  |  |  |  |  |  |  | 
28 | Cc1cc(C)nc(NS(=O)(=O)c2ccc(NNc3c4ccccc4nc4c(C(=O)Nc5ccc(S(=O)(=O)Nc6cc(C)on6)cc5)cccc34)cc2)n1 | 65.7 | > 100 µM | 80.6 | 88.8 | > 100 | 82.1 | 47.2 | > 100 | > 100 | > 100 |  |  |  |  |  |  |  |  |  | 
29 | c1cc2cc3c4c5c(cc6ccc7cc8cc9c%10c8c8c7c6c5c8c5c%10c(c1C9N1CCOCCOCCOCCOCCOCC1)c2c45)C3 (centres undefined) | > 100 | > 100 µM | > 100 | > 100 | > 100 | > 100 | > 100 | > 100 | > 100 | > 100 |  |  |  |  |  |  |  |  |  | 
30 | Cc1ccc(N2C(=O)C3CSCN3C2=O)cc1 (centres undefined) | > 100 | > 100 µM and 11.7 µM | > 100 | > 100 |  | > 100 | > 100 | > 100 | > 100 | > 100 |  | > 100 |  |  |  |  |  |  |  | 
31 | C=C(Br)C[N+]12CN3CN(CN(C3)C1)C2 | > 100 | > 100 µM | > 100 | > 100 | > 100 | > 100 | > 100 | > 100 | > 100 | > 100 |  |  |  |  |  |  |  |  |  | 
32 | Clc1ccc(-c2nn3c(COc4cccc(OCc5nnc6sc(-c7ccc(Cl)cc7)nn56)c4)nnc3s2)cc1 | 56.8 | 44.7 µM | 53.6 | > 100 | 75.9 | 55.3 | 44 | 74.4 | > 100 | > 100 |  |  |  |  |  |  |  |  |  | 
33 | CCOC(=O)CCc1cn2cc(Br)nc(OC)c2n1 | > 100 | > 100 µM | > 100 | > 100 | > 100 | > 100 | > 100 |  | > 100 | > 100 |  |  |  |  |  |  |  |  |  | 
34 | O=C1Nc2cccc(Cl)c2/C1=C\c1c(-c2ccccc2)nc2n1CCS2 | 74.7 | 54.6 µM | 41.3 | 36.3 | 45.2 | > 100 | 43.5 | 48.2 | 52.9 | 35.2 |  |  |  |  |  |  |  |  |  | 
35 | CC(C)(C)OC(=O)C(C#N)C(=O)c1ccc(C(=O)O)[nH]1 (centres undefined) | > 100 | > 100 µM | 62.1 | > 100 | > 100 | > 100 | > 100 | > 100 | > 100 | > 100 |  |  |  |  |  |  |  |  |  | 
36 | C=C(CN(CC)CC)C1(c2ccccc2)CC2(CCCC2)C(=O)O1 (centres undefined) | > 100 | > 100 µM | > 100 | > 100 | > 100 | > 100 | > 100 | > 100 | > 100 | > 100 |  |  |  |  |  |  |  |  |  | 
